Test results taken from ChEMBL document CHEMBL1909046, “DrugMatrix in vitro pharmacology data”.

Columns and labels:
Substance-P receptor = Substance-P receptor (Homo sapiens, UniProt P25103); assay type: cell membranes, Membrane; conditions: cho; further: in other assays of this panel Not Active means under 50% inhibition at 10 µM
[1] = target: Beta-2 adrenergic receptor (Homo sapiens, UniProt P07550); assay: DRUGMATRIX: Adrenergic beta2 radioligand binding (ligand: [3H] CGP-12177); assay type: cell membranes, Membrane; conditions: cho; Not Active = under 50% inhibition at 10 µM
Chain of Beta-2 adrenergic receptor (P07550 whole entry): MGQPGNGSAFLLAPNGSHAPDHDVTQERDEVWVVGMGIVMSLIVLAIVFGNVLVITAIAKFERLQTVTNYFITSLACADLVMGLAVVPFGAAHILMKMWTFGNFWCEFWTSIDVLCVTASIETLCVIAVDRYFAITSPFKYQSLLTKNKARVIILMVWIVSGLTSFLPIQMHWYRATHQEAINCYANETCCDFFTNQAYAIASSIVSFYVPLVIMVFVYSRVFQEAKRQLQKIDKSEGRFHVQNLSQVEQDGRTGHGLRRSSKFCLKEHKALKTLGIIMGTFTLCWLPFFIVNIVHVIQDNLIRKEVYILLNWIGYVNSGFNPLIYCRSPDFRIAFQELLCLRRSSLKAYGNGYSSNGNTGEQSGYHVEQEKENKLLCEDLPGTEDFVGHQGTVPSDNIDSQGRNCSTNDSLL

[2] = target: T1, Alpha-2A adrenergic receptor (Homo sapiens, UniProt P08913); assay type: cell membranes, Sf9, Membrane; conditions: sf9; further: in other assays of this panel Not Active means under 50% inhibition at 10 µM
T1 sequence (P08913 whole entry): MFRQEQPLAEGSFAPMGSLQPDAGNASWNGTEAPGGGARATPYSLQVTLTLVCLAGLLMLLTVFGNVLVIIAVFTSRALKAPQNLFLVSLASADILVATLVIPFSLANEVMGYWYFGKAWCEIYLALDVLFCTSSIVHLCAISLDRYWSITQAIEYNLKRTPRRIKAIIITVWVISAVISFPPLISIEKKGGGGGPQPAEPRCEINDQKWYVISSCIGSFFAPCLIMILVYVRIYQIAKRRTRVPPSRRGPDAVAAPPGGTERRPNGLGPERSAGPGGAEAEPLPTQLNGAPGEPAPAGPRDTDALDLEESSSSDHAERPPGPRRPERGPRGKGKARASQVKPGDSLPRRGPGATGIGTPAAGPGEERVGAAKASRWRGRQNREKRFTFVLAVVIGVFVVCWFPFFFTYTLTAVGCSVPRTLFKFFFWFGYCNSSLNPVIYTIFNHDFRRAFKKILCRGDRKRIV

[3] = DRUGMATRIX: Purinergic P2X radioligand binding (ligand: [3H] alpha, beta-Methylene-ATP); assay type: cell membranes, Oryctolagus cuniculus, New Zealand albino, Urinary bladder, Membrane; conditions: Not Active = under 50% inhibition at 10 µM
D(4) dopamine receptor = target: T2, D(4) dopamine receptor (Homo sapiens, UniProt P21917); assay: DRUGMATRIX: Dopamine D4.2 radioligand binding (ligand: [3H] Spiperone); assay type: cell membranes, Membrane; conditions: cho-k1; Not Active = under 50% inhibition at 10 µM
T2 sequence (P21917 whole entry): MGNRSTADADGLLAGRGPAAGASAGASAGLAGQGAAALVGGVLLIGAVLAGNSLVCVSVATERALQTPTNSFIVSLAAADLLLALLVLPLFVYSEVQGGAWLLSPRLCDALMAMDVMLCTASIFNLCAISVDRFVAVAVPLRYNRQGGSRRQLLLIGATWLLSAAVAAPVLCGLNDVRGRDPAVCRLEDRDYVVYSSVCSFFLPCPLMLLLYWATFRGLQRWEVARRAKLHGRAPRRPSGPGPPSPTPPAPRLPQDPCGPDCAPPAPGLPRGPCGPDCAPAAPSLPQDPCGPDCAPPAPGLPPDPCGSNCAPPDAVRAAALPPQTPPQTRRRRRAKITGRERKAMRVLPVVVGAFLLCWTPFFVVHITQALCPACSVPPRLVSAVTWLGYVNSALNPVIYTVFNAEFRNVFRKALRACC

[4] = DRUGMATRIX: Interleukin IL-1 radioligand binding (ligand: [125I] interleukin 1beta); assay type: cell membranes, Membrane; conditions: nih3t3; Not Active = under 50% inhibition at 10 µM
[5] = target: 5-hydroxytryptamine receptor 4 (Cavia porcellus, UniProt O70528); assay type: cell membranes, Dunkin-Hartley, Striatum, Membrane; further: in other assays of this panel Not Active means under 50% inhibition at 10 µM
Chain of 5-hydroxytryptamine receptor 4 (O70528 whole entry): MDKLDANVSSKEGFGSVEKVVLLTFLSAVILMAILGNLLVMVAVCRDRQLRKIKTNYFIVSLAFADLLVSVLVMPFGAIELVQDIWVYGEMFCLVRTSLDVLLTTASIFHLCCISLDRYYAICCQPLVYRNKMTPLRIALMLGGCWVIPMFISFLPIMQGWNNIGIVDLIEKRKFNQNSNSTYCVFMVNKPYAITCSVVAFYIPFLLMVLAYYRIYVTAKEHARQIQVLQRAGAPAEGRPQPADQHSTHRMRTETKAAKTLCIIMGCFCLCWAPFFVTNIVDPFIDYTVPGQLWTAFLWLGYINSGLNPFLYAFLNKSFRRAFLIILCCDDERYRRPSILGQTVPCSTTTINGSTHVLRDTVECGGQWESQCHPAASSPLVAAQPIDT

Chain of Substance-P receptor (P25103 whole entry): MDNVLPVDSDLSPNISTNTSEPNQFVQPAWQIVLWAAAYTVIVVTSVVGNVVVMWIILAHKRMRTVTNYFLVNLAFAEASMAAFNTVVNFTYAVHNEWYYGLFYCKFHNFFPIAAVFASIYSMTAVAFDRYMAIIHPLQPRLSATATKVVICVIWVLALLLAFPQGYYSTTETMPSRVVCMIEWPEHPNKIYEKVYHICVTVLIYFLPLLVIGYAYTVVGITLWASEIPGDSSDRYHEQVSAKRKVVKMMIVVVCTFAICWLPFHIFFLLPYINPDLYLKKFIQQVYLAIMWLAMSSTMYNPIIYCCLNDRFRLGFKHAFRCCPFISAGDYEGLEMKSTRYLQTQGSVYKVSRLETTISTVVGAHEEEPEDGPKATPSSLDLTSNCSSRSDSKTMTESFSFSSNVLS

CCOC(=O)C1=C(C)NC(C)=C(C(=O)OC)C1c1cccc([N+](=O)[O-])c1 (stereo not given) [NITRENDIPINE]
Not Active: IC50 (Substance-P receptor) | IC50 [1] | IC50 [2] | IC50 [3] | Ki [3] | IC50 (D(4) dopamine receptor) | IC50 [4] | Ki [4] | IC50 [5]

O=C1CC[C@H](N2C(=O)c3ccccc3C2=O)C(=O)N1
Not Active: IC50 (Substance-P receptor) | IC50 [1] | IC50 [2] | IC50 [3] | Ki [3] | IC50 (D(4) dopamine receptor) | IC50 [4] | Ki [4] | IC50 [5]

C/C=C/C[C@@H](C)[C@@H](O)[C@H]1C(=O)N[C@@H](CC)C(=O)N(C)CC(=O)N(C)[C@@H](CC(C)C)C(=O)N[C@@H](C(C)C)C(=O)N(C)[C@@H](CC(C)C)C(=O)N[C@@H](C)C(=O)N[C@H](C)C(=O)N(C)[C@@H](CC(C)C)C(=O)N(C)[C@@H](CC(C)C)C(=O)N(C)[C@@H](C(C)C)C(=O)N1C [CYCLOSPORINE]
Not Active: IC50 (Substance-P receptor) | IC50 [1] | IC50 [2] | IC50 [3] | Ki [3] | IC50 (D(4) dopamine receptor) | IC50 [4] | Ki [4] | IC50 [5]

CC(C)Cc1ccc(C(C)C(=O)O)cc1 (stereo not given) [IBUPROFEN]
Not Active: IC50 (Substance-P receptor) | IC50 [1] | IC50 [2] | IC50 [3] | Ki [3] | IC50 (D(4) dopamine receptor) | IC50 [4] | Ki [4] | IC50 [5]

CCCCN1CCCCC1C(=O)Nc1c(C)cccc1C.Cl (stereo not given) [BUPIVACAINE HYDROCHLORIDE]
Not Active: IC50 (Substance-P receptor) | IC50 [1] | IC50 [2] | IC50 [3] | Ki [3] | IC50 (D(4) dopamine receptor) | IC50 [4] | Ki [4] | IC50 [5]
